Results taken from patent US9839640B2, “Methods of treating eye diseases associated with inflammation and vascular proliferation” (OccuRx Pty Ltd, priority 2010, dated 2017).

How the values were obtained:
Format in all cases: in vivo, rat
leukocytes in the retina [1] = assay: Leukostasis, rhodamine-coupled Concanavalin A staining of retina (FT061 study)
Experimental: (§1) Sixty, six-week old female, heterozygous (mRen-2) 27 rats (St. Vincent's Hospital Animal House, Melbourne, Australia) were assigned to receive either 55 mg/kg of streptozotocin (STZ) (Sigma, St. Louis, USA) diluted in 0.1 M citrate buffer, pH 4.5 or citrate buffer alone (non-diabetic control) by tail vein injection following an overnight fast. Rats were randomly assigned to receive (n=15/group) treatment with either FT061 (100 mg/kg/day gavage) or vehicle for 8 weeks. Non-diabetic animals (n=15) served as controls. Each week, rats were weighed and their blood glucose levels were measured (Accu-check Advantage II Blood Glucose Monitor, Roche Diagnostics, USA) and only STZ-treated animals with blood glucose >15 mmol/L were considered diabetic. Every 4 weeks, SBP was determined in preheated conscious rats via tail-cuff plethysmography using a non-invasive blood pressure (NIBP) controller and Powerlab (AD instruments, NSW, Australia). Diabetic rats received a daily injection of insulin (2-4 units intraperitoneally; Humulin NPH, Eli Lilly and Co., Indianapolis, Ind.) to reduce mortality and to promote weight gain.
At the end of the study, rats were anaesthetized with Lethobarb (60 mg/kg) and the chest cavity was opened. […] The total number of leukocytes was counted per retina. […]

ICAM-1 mRNA [2] = assay: Real time PCR of retinal ICAM-1 mRNA (FT061 study); details: FIG. 8; diabetic rats, FT061 100 mg/kg/day 8 weeks, compared to controls and untreated diabetes
Experimental: as §1, with “Diabetic rats received a daily injection of insulin (2-4 units intraperitoneally; Humulin NPH, Eli Lilly and Co., Indianapolis, Ind.) to reduce mortality and to promote weight gain.” left out
(§2) At the end of the study, rats were anaesthetized with lethobarb (60 mg/kg), eyes were enucleated and retinae dissected and placed in RNAlater (#R0901, Sigma-Aldrich). […] RNA concentration was determined on a Nanodrop 3.1.2, after which 1 μg of RNA was DNase treated (DNA-free kit, Ambion) and reverse transcribed (First Strand cDNA Synthesis Kit for RT-PCR, Roche). […]

VEGF mRNA = assay: Real time PCR of retinal VEGF mRNA (FT061 study); details: FIG. 9; diabetic rats, FT061 100 mg/kg/day 8 weeks, compared to controls and untreated diabetes
Experimental: as §1, with “Diabetic rats received a daily injection of insulin (2-4 units intraperitoneally; Humulin NPH, Eli Lilly and Co., Indianapolis, Ind.) to reduce mortality and to promote weight gain.” left out
as §2

ICAM-1 mRNA [3] = assay: Real time PCR of retinal ICAM-1 mRNA (short term study); details: FIG. 3; diabetic rats treated with FT011, short term 8 week study; normalised to 18S rRNA
Experimental: (§3) Ninety, six-week old female, heterozygous (mRen-2) 27 rats (St. Vincent's Hospital Animal House, Melbourne, Australia) were assigned to receive either 55 mg/kg of streptozotocin (STZ) (Sigma, St. Louis, USA) diluted in 0.1 M citrate buffer, pH 4.5 or citrate buffer alone (non-diabetic control) by tail vein injection following an overnight fast. In short term study, rats were randomly assigned to receive (n=10/group) treatment with either FT011 (100 mg/kg bid gavage) or vehicle for 8 weeks. Non-diabetic animals (n=10) served as controls. In the long term study, at 16 weeks of STZ diabetes rats were randomly assigned to either treatment (n=15/group) with, FT011 (50 mg/kg/day BID), FT011 (100 mg/kg BID) or no treatment for a further 16 weeks. Non-diabetic animals (n=15) served as controls. Each week, rats were weighed and their blood glucose levels were measured (Accu-check Advantage II Blood Glucose Monitor, Roche Diagnostics, USA) and only STZ-treated animals with blood glucose >15 mmol/L were considered diabetic. Every 4 weeks, SBP was determined in preheated conscious rats via tail-cuff plethysmography using a non-invasive blood pressure (NIBP) controller and Powerlab (AD instruments, NSW, Australia). Haemoglobin A1c (HbA1c) was measured by HPLC at the end of the study in the Department of Pathology, St Vincent's Hospital. […]

[4] = Animal characteristics (32 weeks study), STZ diabetic (mRen-2) 27 rats treated with FT011
Experimental: as §3

leukocytes in the retina [5] = assay: Leukostasis (short term study), rhodamine-coupled Concanavalin A staining of retina
Experimental: as §3

acellular capillaries = assay: Trypsin digest, acellular capillaries in PAS stained retina (long term study 32 weeks); details: diabetic rats, 100 mg/kg/day FT011, long term study
Experimental: as §3

[6] = Animal characteristics (8 weeks study), STZ diabetic (mRen-2) 27 rats treated with FT011; details: FT011 200 mg/kg/day (100 mg/kg bid gavage), P < 0.05 versus untreated diabetes
Experimental: as §3

Which “total number of leukocytes in the retina” value (leukocytes in the retina [1]; FIG. 6, diabetic rats, FT061 100 mg/kg/day gavage 8 weeks, compared to untreated diabetic rats) does the source give for O=C(/C=C/c1ccc(OC(F)F)c(OC(F)F)c1)Nc1ccccc1C(=O)O [FT061] here?
The value was “significantly less”.

What about the “leukostasis (representative photomicrographs)” value (leukocytes in the retina [1]; FIG. 7, diabetic rats treated with FT061) of the same molecule?
Its value is “significantly reduced leukostasis”.

What about the “retinal ICAM-1 mRNA levels” value (ICAM-1 mRNA [2]) of the same molecule?
Its value is “reduction in ICAM-1 mRNA levels”.

What about the “retinal VEGF mRNA levels” value (VEGF mRNA) of the same molecule?
The value was “reduction in VEGF mRNA levels”.

Which “retinal ICAM-1 mRNA levels” value (ICAM-1 mRNA [3]) does the source give for C#CCOc1ccc(/C=C/C(=O)Nc2ccccc2C(=O)O)cc1OC [FT011] here?
The value was “reduction in ICAM-1 mRNA levels”.

What about the HbA1C ([4]; FT011 100 mk/kg/day, P < 0.05 versus control) of the same molecule?
Its HbA1C is 7.65 ± 0.25 %.

And the HbA1C ([4]; FT011 200 mk/kg/day, P < 0.05 versus untreated diabetes)?
Its HbA1C is 6.58 ± 0.37 %.

What about the “total number of leukocytes in the retina” value (leukocytes in the retina [5]; FIG. 1, diabetic rats, FT011 100 mg/kg bid gavage 8 weeks, compared to untreated diabetic rats) of the same molecule?
Its value is “significantly less”.

And the “leukostasis (representative micrographs)” value (leukocytes in the retina [5]; FIG. 2, diabetic rats treated with FT011, short term study)?
Its value is “significantly reduced leukostasis”.

And the “number of acellular capillaries per field” value (acellular capillaries; FIG. 4, compared to untreated diabetic rats)?
Its value is “less acellular capillaries”.

What about the “acellular capillaries (pericyte ghost), representative micrographs” value (acellular capillaries; FIG. 5) of the same molecule?
Its value is “pericyte ghosts were not apparent”.

What about the HbA1C [6] of the same molecule?
The HbA1C was 8.9 ± 0.50 %.
